From PubChem BioAssay (NCI)
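Where inhibition never reached the appropriate level, the endpoint shown equals the highest concentration tested. Otherwise, values were interpolated linearly from a five-concentration, 48-hour dose response in 96-well plates. TGI is the concentration that stops growth completely.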

Columns and labels:
Assay in all cases: NCI tumour cell line growth inhibition, 48 h
DLD-1 colon = tested on: DLD-1 colon
DMS 114 small cell lung = tested on: DMS 114 small cell lung
MOLT-4 leukemia = tested on: MOLT-4 leukemia
SF-268 CNS = tested on: SF-268 CNS
HCT-15 colon = tested on: HCT-15 colon
RXF-631 renal = tested on: RXF-631 renal
SK-MEL-28 melanoma = tested on: SK-MEL-28 melanoma
SK-OV-3 ovarian = tested on: SK-OV-3 ovarian
HCT-116 colon = tested on: HCT-116 colon
SF-295 CNS = tested on: SF-295 CNS
HOP-92 NSCLC = tested on: HOP-92 NSCLC
U251 CNS = tested on: U251 CNS
NCI-H522 lung = tested on: NCI-H522 lung
HOP-18 NSCLC = tested on: HOP-18 NSCLC
SR leukemia = tested on: SR leukemia
RXF 393 renal = tested on: RXF 393 renal
DMS 273 small cell lung = tested on: DMS 273 small cell lung
CAKI-1 renal = tested on: CAKI-1 renal
LOX IMVI melanoma = tested on: LOX IMVI melanoma
A498 renal = tested on: A498 renal
OVCAR-3 ovarian = tested on: OVCAR-3 ovarian
EKVX NSCLC = tested on: EKVX NSCLC
MALME-3M melanoma = tested on: MALME-3M melanoma
RPMI-8226 leukemia = tested on: RPMI-8226 leukemia
UO-31 renal = tested on: UO-31 renal
HT29 colon = tested on: HT29 colon
OVCAR-5 ovarian = tested on: OVCAR-5 ovarian
UACC-62 melanoma = tested on: UACC-62 melanoma
COLO 205 colon = tested on: COLO 205 colon
HOP-62 NSCLC = tested on: HOP-62 NSCLC
TK-10 renal = tested on: TK-10 renal
A549 NSCLC = tested on: A549 NSCLC
LXFL 529 NSCLC = tested on: LXFL 529 NSCLC
IGROV1 ovarian = tested on: IGROV1 ovarian
OVCAR-4 ovarian = tested on: OVCAR-4 ovarian
SN12C renal = tested on: SN12C renal
SK-MEL-2 melanoma = tested on: SK-MEL-2 melanoma
NCI-H23 lung = tested on: NCI-H23 lung
K-562 leukemia = tested on: K-562 leukemia
SW-620 colon = tested on: SW-620 colon
ACHN renal = tested on: ACHN renal
SK-MEL-5 melanoma = tested on: SK-MEL-5 melanoma
KM12 colon = tested on: KM12 colon
SNB-19 CNS = tested on: SNB-19 CNS
SNB-78 CNS = tested on: SNB-78 CNS
XF 498 CNS = tested on: XF 498 CNS
OVCAR-8 ovarian = tested on: OVCAR-8 ovarian
UACC-257 melanoma = tested on: UACC-257 melanoma
KM20L2 colon = tested on: KM20L2 colon
SNB-75 CNS = tested on: SNB-75 CNS
HCC-2998 colon = tested on: HCC-2998 colon
M19-MEL melanoma = tested on: M19-MEL melanoma
HL-60(TB) leukemia = tested on: HL-60(TB) leukemia
NCI-H226 lung = tested on: NCI-H226 lung
CCRF-CEM leukemia = tested on: CCRF-CEM leukemia
786-0 renal = tested on: 786-0 renal
M14 melanoma = tested on: M14 melanoma
NCI-H460 lung = tested on: NCI-H460 lung
NCI/ADR-RES ovarian = tested on: NCI/ADR-RES ovarian
SF-539 CNS = tested on: SF-539 CNS
P388/ADR leukemia = tested on: P388/ADR leukemia
MCF7 breast = tested on: MCF7 breast
P388 leukemia = tested on: P388 leukemia
SN12K1 renal = tested on: SN12K1 renal

**Q.** Which results are given for `CCCCCCCC(=O)OC(CBr)COC(=O)C(C)(C)C` (centres undefined)?
**A.** TGI (DLD-1 colon): > 100 µM; TGI (DMS 114 small cell lung): > 100 µM; TGI (MOLT-4 leukemia): 75.2 µM; TGI (SF-268 CNS): > 100 µM; TGI (HCT-15 colon): > 100 µM; TGI (RXF-631 renal): > 100 µM; TGI (SK-MEL-28 melanoma): > 100 µM; TGI (SK-OV-3 ovarian): > 100 µM; TGI (HCT-116 colon): > 100 µM; TGI (SF-295 CNS): > 100 µM; TGI (HOP-92 NSCLC): > 100 µM; TGI (U251 CNS): > 100 µM; TGI (NCI-H522 lung): > 100 µM; TGI (HOP-18 NSCLC): > 100 µM; TGI (SR leukemia): 57.1 µM; TGI (RXF 393 renal): > 100 µM; TGI (DMS 273 small cell lung): > 100 µM; TGI (CAKI-1 renal): > 100 µM; TGI (LOX IMVI melanoma): > 100 µM; TGI (A498 renal): > 100 µM; TGI (OVCAR-3 ovarian): > 100 µM; TGI (EKVX NSCLC): > 100 µM; TGI (MALME-3M melanoma): > 100 µM; TGI (RPMI-8226 leukemia): > 71.2 µM; TGI (UO-31 renal): > 100 µM; TGI (HT29 colon): > 100 µM; TGI (OVCAR-5 ovarian): > 100 µM; TGI (UACC-62 melanoma): > 100 µM; TGI (COLO 205 colon): > 100 µM; TGI (HOP-62 NSCLC): > 100 µM; TGI (TK-10 renal): > 100 µM; TGI (A549 NSCLC): > 100 µM; TGI (LXFL 529 NSCLC): > 100 µM; TGI (IGROV1 ovarian): > 100 µM; TGI (OVCAR-4 ovarian): > 100 µM; TGI (SN12C renal): > 100 µM; TGI (SK-MEL-2 melanoma): > 100 µM; TGI (NCI-H23 lung): > 100 µM; TGI (K-562 leukemia): > 100 µM; TGI (SW-620 colon): > 100 µM; TGI (ACHN renal): > 100 µM; TGI (SK-MEL-5 melanoma): > 100 µM; TGI (KM12 colon): > 100 µM; TGI (SNB-19 CNS): > 100 µM; TGI (SNB-78 CNS): > 100 µM; TGI (XF 498 CNS): > 100 µM; TGI (OVCAR-8 ovarian): > 100 µM; TGI (UACC-257 melanoma): > 100 µM; TGI (KM20L2 colon): > 100 µM; TGI (SNB-75 CNS): 68.8 µM; TGI (HCC-2998 colon): > 100 µM; TGI (M19-MEL melanoma): > 100 µM; TGI (HL-60(TB) leukemia): > 100 µM; TGI (NCI-H226 lung): > 100 µM; TGI (CCRF-CEM leukemia): > 87.2 µM; TGI (786-0 renal): > 100 µM; TGI (M14 melanoma): > 100 µM; TGI (NCI-H460 lung): > 100 µM

**Q.** Which TGI (DLD-1 colon) does the source give for `C/C(=N\NS(=O)(=O)c1ccccc1)c1ccccc1` here?
**A.** Its TGI is greater than 100 µM.

**Q.** What about the TGI (NCI/ADR-RES ovarian) of the same compound?
**A.** The TGI was greater than 100 µM.

**Q.** And the TGI (DMS 114 small cell lung)?
**A.** Its TGI is greater than 100 µM.

**Q.** And the TGI (MOLT-4 leukemia)?
**A.** Its TGI is greater than 100 µM.

**Q.** What about the TGI (SF-268 CNS) of the same compound?
**A.** The TGI was greater than 100 µM.

**Q.** What about the TGI (HCT-15 colon) of the same compound?
**A.** Its TGI is greater than 100 µM.

**Q.** And the TGI (SK-MEL-28 melanoma)?
**A.** The TGI was greater than 100 µM.

**Q.** And the TGI (SK-OV-3 ovarian)?
**A.** Its TGI is greater than 100 µM.

**Q.** What about the TGI (HCT-116 colon) of the same compound?
**A.** Its TGI is greater than 100 µM.

**Q.** And the TGI (SF-295 CNS)?
**A.** The TGI was greater than 100 µM.

**Q.** What about the TGI (HOP-92 NSCLC) of the same compound?
**A.** The TGI was greater than 100 µM.

**Q.** And the TGI (U251 CNS)?
**A.** The TGI was greater than 100 µM.

**Q.** What about the TGI (NCI-H522 lung) of the same compound?
**A.** Its TGI is greater than 100 µM.

**Q.** And the TGI (SF-539 CNS)?
**A.** The TGI was greater than 100 µM.

**Q.** What about the TGI (HOP-18 NSCLC) of the same compound?
**A.** Its TGI is greater than 100 µM.

**Q.** What about the TGI (RXF 393 renal) of the same compound?
**A.** Its TGI is greater than 100 µM.

**Q.** What about the TGI (DMS 273 small cell lung) of the same compound?
**A.** The TGI was greater than 100 µM.

**Q.** And the TGI (CAKI-1 renal)?
**A.** Its TGI is greater than 100 µM.

**Q.** What about the TGI (LOX IMVI melanoma) of the same compound?
**A.** The TGI was greater than 100 µM.

**Q.** And the TGI (A498 renal)?
**A.** The TGI was greater than 100 µM.

**Q.** What about the TGI (OVCAR-3 ovarian) of the same compound?
**A.** The TGI was greater than 100 µM.

**Q.** And the TGI (EKVX NSCLC)?
**A.** The TGI was greater than 100 µM.

**Q.** What about the TGI (MALME-3M melanoma) of the same compound?
**A.** The TGI was greater than 100 µM.

**Q.** And the TGI (P388/ADR leukemia)?
**A.** The TGI was greater than 100 µM.

**Q.** And the TGI (RPMI-8226 leukemia)?
**A.** Its TGI is greater than 100 µM.

**Q.** And the TGI (UO-31 renal)?
**A.** Its TGI is greater than 100 µM.

**Q.** What about the TGI (HT29 colon) of the same compound?
**A.** The TGI was greater than 100 µM.

**Q.** And the TGI (OVCAR-5 ovarian)?
**A.** Its TGI is greater than 100 µM.

**Q.** And the TGI (MCF7 breast)?
**A.** The TGI was greater than 100 µM.

**Q.** And the TGI (UACC-62 melanoma)?
**A.** Its TGI is greater than 100 µM.

**Q.** And the TGI (COLO 205 colon)?
**A.** The TGI was greater than 100 µM.

**Q.** And the TGI (HOP-62 NSCLC)?
**A.** Its TGI is greater than 100 µM.

**Q.** What about the TGI (A549 NSCLC) of the same compound?
**A.** The TGI was greater than 100 µM.

**Q.** And the TGI (P388 leukemia)?
**A.** The TGI was greater than 100 µM.

**Q.** And the TGI (IGROV1 ovarian)?
**A.** The TGI was greater than 100 µM.

**Q.** And the TGI (OVCAR-4 ovarian)?
**A.** The TGI was greater than 100 µM.

**Q.** What about the TGI (SN12C renal) of the same compound?
**A.** Its TGI is greater than 100 µM.

**Q.** What about the TGI (SK-MEL-2 melanoma) of the same compound?
**A.** Its TGI is greater than 100 µM.

**Q.** And the TGI (NCI-H23 lung)?
**A.** Its TGI is greater than 100 µM.

**Q.** And the TGI (K-562 leukemia)?
**A.** The TGI was greater than 100 µM.

**Q.** And the TGI (SW-620 colon)?
**A.** Its TGI is greater than 100 µM.

**Q.** What about the TGI (SK-MEL-5 melanoma) of the same compound?
**A.** The TGI was greater than 100 µM.

**Q.** And the TGI (KM12 colon)?
**A.** Its TGI is greater than 100 µM.

**Q.** And the TGI (SNB-19 CNS)?
**A.** Its TGI is greater than 100 µM.

**Q.** What about the TGI (SNB-78 CNS) of the same compound?
**A.** Its TGI is greater than 100 µM.

**Q.** And the TGI (XF 498 CNS)?
**A.** The TGI was greater than 100 µM.

**Q.** What about the TGI (OVCAR-8 ovarian) of the same compound?
**A.** Its TGI is greater than 100 µM.

**Q.** What about the TGI (UACC-257 melanoma) of the same compound?
**A.** The TGI was greater than 100 µM.

**Q.** And the TGI (KM20L2 colon)?
**A.** The TGI was greater than 100 µM.

**Q.** And the TGI (SNB-75 CNS)?
**A.** Its TGI is greater than 100 µM.

**Q.** What about the TGI (HCC-2998 colon) of the same compound?
**A.** The TGI was greater than 100 µM.

**Q.** What about the TGI (HL-60(TB) leukemia) of the same compound?
**A.** The TGI was greater than 100 µM.

**Q.** What about the TGI (NCI-H226 lung) of the same compound?
**A.** Its TGI is greater than 100 µM.

**Q.** What about the TGI (CCRF-CEM leukemia) of the same compound?
**A.** Its TGI is greater than 100 µM.

**Q.** And the TGI (SN12K1 renal)?
**A.** The TGI was greater than 100 µM.

**Q.** And the TGI (NCI-H460 lung)?
**A.** The TGI was greater than 100 µM.
